pIC50: −log10 of the molar value. Counter-ions that a name gives are not always drawn. A value given as a limit tells only on which side of the number the result lay.

Experimental findings from patent US20090156646A1, “PYRIDYLPHENOL COMPOUND AND USE THEREOF” (TAKEDA PHARMACEUTICAL COMPANY LIMITED, priority 2005, published 2009) are described below.

T1 sequence (Q969F8 whole entry L364H): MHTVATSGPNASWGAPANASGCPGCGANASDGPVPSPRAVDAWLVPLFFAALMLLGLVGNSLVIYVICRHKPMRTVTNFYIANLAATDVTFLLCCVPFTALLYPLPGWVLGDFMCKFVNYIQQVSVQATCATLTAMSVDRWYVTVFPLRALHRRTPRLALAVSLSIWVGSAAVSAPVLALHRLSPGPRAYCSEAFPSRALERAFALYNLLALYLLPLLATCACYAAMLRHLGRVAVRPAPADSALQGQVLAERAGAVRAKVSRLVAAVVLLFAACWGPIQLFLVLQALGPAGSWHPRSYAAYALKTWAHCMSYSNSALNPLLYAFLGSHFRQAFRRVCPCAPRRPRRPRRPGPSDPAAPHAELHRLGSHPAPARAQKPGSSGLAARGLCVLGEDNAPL

The first data set addresses T1, human metastin receptor hOT7T175 (Homo sapiens, UniProt Q969F8, L364H).
T1 construct: encoding the entire length of human metastin receptor hOT7T175; expressed in transfected cells; host or cells: CHO/dhFr- cells (ATCC #CRL-9096) stably transfected with pAKKO-hOT7T175; clone h175-16 was used as whole cells for FLIPR
The data set can be described thus: binding inhibiting activity: 125I-metastin (40-54) binding to cell membrane fraction of h175 KB34 cells. Conditions: room temperature 60 minutes, read-out: binding inhibiting activity, represented by the IC50 value. The protocol:
cDNA fragments (SEQ ID NO: 2) encoding the entire length of human metastin receptor hOT7T175 were incorporated into expression vector pAKKO1.11H to produce animal cell expression plasmids pAKKO-hOT7T175. CHO/dhFr-cells (ATCC, #CRL-9096) were seeded onto 6 cm culture dishes (Becton Dickinson) at a density of 0.3×10^6 cells/dish, and cultured in the conditions of 48 hours, 37° C. and 5% CO2. 5 μg pAKKO-hOT7T175 plasmid DNA was transfected to the resultant cells by a known method (described in Example 3 of WO 00/24890) using the Cellphect Transfection Kit (Amersham, #27-9268-01). The DNA-transfected cells were cultured in the Dulbecco's modified Eagle medium (DMEM) (Sigma, #D6046) containing 10% dialyzed FBS (Biowest, #S180D), 1× Non-Essential Amino Acid (Invitrogen, #11140-050) and 50 μg/ml Gentamycin (Invitrogen, #15750-060; and cell strains stably expressing the plasmid genes were selected. The obtained 41 clones were treated with the FLIPR assay (in accordance with the method described in Example 3 of WO 00/24890), and the reactivity to the human metastin […] (Nos. 40 to 54 of the human metastin sequence; Peptide Institute, Inc., #4389-v) was evaluated. In the end, h175 KB34 cell strains were selected. By substantially the same method, h175-16 cell strains were also produced.
The h175 KB34 cells were cultured to be on the stage of 40-50% confluency using a cell factory (Nunc, #164327), and then cells were recovered in the following method.
First, the medium was disposed, and the cells were washed twice with 200 ml EDTA/PBS(−). Another 200 ml of EDTA/PBS(−) was added, and the cells were kept still for 20 minutes at room temperature until being peeled off. The cells were recovered into four 50 ml tubes (Becton Dickinson, #352070), and centrifuged (2,000 rpm, 10 min., 4° C.) by a reduced performance centrifuge (TOMY, RL-101). The supernatant was disposed, and the pellets in the four tubes were each suspended with 10 ml EDTA/PBS(−) and collected into one tube (Becton Dickinson, #352070). The pellet was further centrifuged (2,000 rpm, 10 min., 4° C.). The resultant pellet was suspended with 20 ml ice-cooled homogenizer buffer [10 mM NaHCO3, 2 mM EGTA, 0.2 mM magnesium acetate, 10 μg/ml Leupeptin (Peptide Institute, Inc., #4041), 10 μg/ml E-64 (Peptide Institute, Inc., # 4096), 100 μg/ml o-phenanthroline (Dojindo Laboratories), 90 μg/ml PMSF (Wako Pure Chemical Industries, Ltd.), 10 μg/ml Pepstatin A (Peptide Institute, Inc., #4397), pH7.3]. The cell suspension was homogenized 3 times, each for 30 seconds, using a Polytron homogenizer. The resultant homogenate was centrifuged (2,500 rpm, 10 min, 4° C.) using a high performance refrigerated centrifuge (Hitachi, Ltd., CR26H). The supernatant was recovered into a super-centrifuge tube, and super-centrifuged (30,000 rpm, 60 min, 4° C.) using a super-centrifuge (Hitachi, Ltd., SCP70H). 3 ml homogenizer buffer was added to the resultant pellet, and the pellet was suspended by pipetting. 3 ml glycerol (Wako Pure Chemical Industries, Ltd.) was added to the resultant suspension and diluted 2-folds. The resultant substance was used as a cell membrane fraction of the h175 KB34 cells. Each […] of the membrane fraction was put into a 1.5 ml tube (Eppendorf, #0030120.086), stored in a freezer (−30 C) so as not to be frozen, and used for a binding assay.
An assay buffer was prepared on the day of the test by adding, to each 100 ml of an assay basic buffer [20 mM Tris, 2.5 mM Magnesium Acetate, 2 mM EGTA, pH 7.4], 1 mg Leupeptin (Peptide Institute, Inc., 4041), 1 mg E-64 (Peptide Institute, Inc., 4096), 10 mg o-phenanthroline (Dojindo Laboratories), 9 mg PMSF (Wako Pure Chemical Industries, Ltd.) and 1 mg Pepstatin A (Peptide Institute, Inc., 4397). The prepared assay buffer was stored at 4° C. until being used. When the measurement was to be performed with no BSA, the above-described assay buffer was used. […]
On to `N#Cc1c(-c2cccc(NC(=O)[C@@H]3CCCC[C@H]3N)c2)cc(-c2ccc(F)cc2O)nc1NC(=O)c1ccco1` (racemic) [Example 277, N-{4-[3-({[(1SR,2SR)-2-aminocyclohexyl]carbonyl}amino)phenyl]-3-cyano-6-(4-fluoro-2-hydroxyphenyl)pyridin-2-yl}-2-furamide hydrochloride], for which the pIC50 is not below 5.00.
The same measure, in the same setting: for `N#Cc1c(-c2cccc(NC(=O)CCN)c2)cc(-c2ccccc2O)nc1NC(=O)c1ccccc1` [Example 31, N-[4-(3-(β-alanylamino)phenyl)-3-cyano-6-(2-hydroxyphenyl)pyridin-2-yl]benzamide trifluoroacetate] the value was not below 5.00; for `CN(C(=O)CN)c1cccc(-c2cc(-c3ccccc3O)nc(NC(=O)c3cccs3)c2C#N)c1` [Example 41, N-[3-cyano-4-{3-[glycyl(methyl)amino]phenyl}-6-(2-hydroxyphenyl)pyridin-2-yl]thiophene-2-carboxamide dihydrochloride], not below 5.00.

System in a further data set: not given
Assay: not given
Settings: not given
With `N#Cc1c(-c2cccc(NC(=O)CCN)c2)cc(-c2ccc(Cl)cc2O)nc1NC(=O)c1ccccc1` (as salt: trifluoroacetate) [Example 51, N-{4-[3-(β-alanylamino)phenyl]-6-(4-chloro-2-hydroxyphenyl)-3-cyanopyridin-2-yl}benzamide trifluoroacetate], the melting point lay in the range of 160 to 167 °C.
In turn, `COc1cccc(O)c1-c1cc(-c2cccc(NC(=O)CCN)c2)c(C#N)c(NC(=O)c2ccccc2)n1` (as salt: trifluoroacetate) [Example 52, N-{4-[3-(β-alanylamino)phenyl]-3-cyano-6-(2-hydroxy-6-methoxyphenyl)pyridin-2-yl}benzamide trifluoroacetate] displayed a melting point of 160 to 167 °C.
`N#Cc1c(-c2cccc(NC(=O)CCN)c2)cc(-c2ccc(Cl)cc2O)nc1NC(=O)c1cccs1` (as salt: trifluoroacetate) [Example 56, N-{4-[3-(β-alanylamino)phenyl]-6-(4-chloro-2-hydroxyphenyl)-3-cyanopyridin-2-yl}thiophene-2-carboxamide trifluoroacetate]: the melting point is 206 to 209 °C.
In the case of `Nc1cccc(-c2cc(NC(=O)c3cccs3)nc(-c3ccccc3O)c2)c1` [Example 25, N-[4-(3-aminophenyl)-6-(2-hydroxyphenyl)pyridin-2-yl]thiophene-2-carboxamide], the melting point is 161 to 162 °C.
In turn, `N#Cc1c(-c2cccc(N)c2)cc(-c2ccccc2O)nc1NC(=O)c1ccccc1` [Example 28, N-[4-(3-aminophenyl)-3-cyano-6-(2-hydroxyphenyl)pyridin-2-yl]benzamide] returned a melting point of 259 to 261 °C.
In turn, `N#Cc1c(-c2cccc(N)c2)cc(-c2ccccc2O)nc1NC(=O)C1CCCCC1` [Example 29, N-[4-(3-aminophenyl)-3-cyano-6-(2-hydroxyphenyl)pyridin-2-yl]cyclohexanecarboxamide] displayed a melting point of 236 to 238 °C.
As for `CC(C)(C)OC(=O)NCCC(=O)Nc1cccc(-c2cc(-c3ccccc3O)nc(NC(=O)c3ccccc3)c2C#N)c1` [Example 30, tert-butyl[3-({3-[2-(benzoylamino)-3-cyano-6-(2-hydroxyphenyl)pyridin-4-yl]phenyl}amino)-3-oxopropyl]carbamate], the melting point is 220 to 221 °C.
Take `N#Cc1c(-c2cccc(N)c2)cc(-c2ccccc2O)nc1NC(=O)c1ccc(Cl)s1` [Example 32, N-[4-(3-aminophenyl)-3-cyano-6-(2-hydroxyphenyl)pyridin-2-yl]-5-chlorothiophene-2-carboxamide]: the melting point was 259 to 260 °C.
On to `N#Cc1c(-c2cccc(N)c2)cc(-c2ccccc2O)nc1NC(=O)c1ccsc1` [Example 33, N-[4-(3-aminophenyl)-3-cyano-6-(2-hydroxyphenyl)pyridin-2-yl]thiophene-3-carboxamide], for which the melting point was in the range of 257 to 260 °C.
Regarding `CCCNC(=O)c1cccc(-c2cc(-c3ccccc3O)nc(NC(=O)c3cccs3)c2C#N)c1` [Example 34, N-(3-cyano-6-(2-hydroxyphenyl)-4-{3-[(propylamino)carbonyl]phenyl}pyridin-2-yl)thiophene-2-carboxamide], the melting point was 245 to 246 °C.
`N#Cc1c(-c2cccc(C(=O)NCCO)c2)cc(-c2ccccc2O)nc1NC(=O)c1cccs1` [Example 35, N-[3-cyano-4-(3-{[(2-hydroxyethyl)amino]carbonyl}phenyl)-6-(2-hydroxyphenyl)pyridin-2-yl]thiophene-2-carboxamide]: the melting point is 218 to 219 °C.
Turning to `N#Cc1c(-c2cccc(C(=O)N3CCOCC3)c2)cc(-c2ccccc2O)nc1NC(=O)c1cccs1` [Example 36, N-{3-cyano-6-(2-hydroxyphenyl)-4-[3-(morpholin-4-ylcarbonyl)phenyl]pyridin-2-yl}thiophene-2-carboxamide], the melting point fell in the range of 253 to 254 °C.
In turn, `CN(C)c1cccc(-c2cc(-c3ccccc3O)nc(NC(=O)c3cccs3)c2C#N)c1` [Example 38, N-{3-cyano-4-[3-(dimethylamino)phenyl]-6-(2-hydroxyphenyl)pyridin-2-yl}thiophene-2-carboxamide] displayed a melting point of 230 to 231 °C.
The molecule `CNc1cccc(-c2cc(-c3ccccc3O)nc(NC(=O)c3cccs3)c2C#N)c1` [Example 39, N-{3-cyano-6-(2-hydroxyphenyl)-4-[3-(methylamino)phenyl]pyridin-2-yl}thiophene-2-carboxamide] registered a melting point of 227 to 230 °C.
In turn, `N#Cc1c(-c2ccc(N)cc2)cc(-c2ccccc2O)nc1NC(=O)c1cccs1` [Example 48, N-[4-(4-aminophenyl)-3-cyano-6-(2-hydroxyphenyl)pyridin-2-yl]thiophene-2-carboxamide] had a melting point of 292 to 293 °C.
Regarding `CC(=O)NCCC(=O)Nc1cccc(-c2cc(-c3ccc(Cl)cc3O)nc(NC(=O)c3cccs3)c2C#N)c1` [Example 59, N-[4-{3-[(N-acetyl-β-alanyl)amino]phenyl}-6-(4-chloro-2-hydroxyphenyl)-3-cyanopyridin-2-yl]thiophene-2-carboxamide], the melting point lay within 209 to 210 °C.
For `CC(C)(C)OC(=O)c1c(-c2cccc(N)c2)cc(-c2ccccc2O)nc1NC(=O)c1ccccc1` [Example 62, tert-butyl 4-(3-aminophenyl)-2-(benzoylamino)-6-(2-hydroxyphenyl)nicotinate], the melting point fell in the range of 162 to 164 °C.
With `CC(C)(C)OC(=O)c1c(-c2cccc(NC(=O)CCN)c2)cc(-c2ccccc2O)nc1NC(=O)c1ccccc1` [Example 82, tert-butyl 4-[3-(β-alanylamino)phenyl]-2-(benzoylamino)-6-(2-hydroxyphenyl) nicotinate], the melting point lay within 247 to 249 °C.
For the molecule `Cl.N#Cc1c(-c2cccc(NC(=O)CC3CCCCN3)c2)cc(-c2ccc(F)cc2O)nc1NC(=O)c1ccco1` (stereo not shown) [Example 290], the melting point is 277 to 278 °C (dec.).
